The source of these data is patent US6368618B1, “Composition and method for enhanced transdermal absorption of nonsteroidal anti-inflammatory drugs” (The University of Georgia Research Foundation, Inc., priority 1999, dated 2002).

Assay type in all cases: physicochemical
A short description of data set [1]: Melt state of physical mixtures of S(+)-ibuprofen and thymol. The settings on record: physical mixtures with thymol. An excerpt: The melt states of the two compounds were then examined weekly for 3 months using an optical microscope.
Data set [2] can be described thus: Melt state of ibuprofen in aqueous isopropyl alcohol (optical microscope). Also noted: key: S: solid crystals present (FIG. 1-B); O: no crystals present (FIG. 1-A). The following applies: 25° C. From the text: The total weight of each mixture was 10 g.
FIG. 1-A represents a two phase melt system with homogeneous oil and aqueous phases, and FIG. 1-B represents a system where complete melt is not achieved. […] (FIG. 1-B). […] (FIG. 1-A).

Data set [3] is described as follows: Composition of the oil phase of two phase melt systems by GC-MS. The settings on record: oil phase of dispersion with 15% isopropyl alcohol, no thymol. As to the method: The composition of the oil phase formed in the dispersion containing 15% isopropyl alcohol was determined by the gas chromatrography-mass spectrometry (GC-MS) analysis.
After ultracentrifugation at 20,000 rpm for 30 minutes at 25° C. of selected two phase melt systems (Systems I, II, III and IV as shown in Table 3) that had been stored at 25° C. for three months, a portion of the oil phase of these melt systems was removed using a micro-sampling tube and was weighed accurately by a taring method.

Data set [4] can be described thus: Melt state of ibuprofen and thymol in aqueous isopropyl alcohol. The settings on record: racemic ibuprofen in place of S(+)-ibuprofen, with thymol and aqueous IPA, samples as in Table 3, 25° C. On the procedure:
(10 g total weight). Replicate samples of these mixtures were prepared at 25° C. and were stored at 25, 15, and 4° C. for three months. During storage, the melt states of the composition were examined weekly using an optical microscope. The results are shown in Table 3, where O and S denote systems described as in FIG. 1-A and 1-B, respectively, at the corresponding temperature. […] The lower the SI:T ratio and the higher the alcohol content, the lower the melting range of the solid components in the mixture, as shown by the attainment of the melt state. […] Thus the use of thymol and aqueous isopropyl alcohol in combination allows the preparation of two phase melt systems with the highest possible SI:T ratio and the lowest isopropyl alcohol content at 25° C.

On to `CC(C)Cc1ccc([C@H](C)C(=O)O)cc1` [S(+)-ibuprofen, a-methyl-4-(2-methylpropyl) benzene-acetic acid], for which the Melt state result is on record as “spontaneously formed a homogeneous oil” in data set [1] (SI:T ratios 5:5 to 6:4 (w:w), ambient temperature (20-25° C.)); “complete melting of the compounds did not occur” in data set [1] (SI:T ratios outside 5:5 to 6:4 (1:9 to 9:1 tested), 25° C.); “S” in data set [2] (5% S(+)-ibuprofen, 5% IPA, pH 4.0 acetate buffer, 3 months); “S” in data set [2] (5% S(+)-ibuprofen, 10% IPA, pH 4.0 acetate buffer, 3 months); “O” in data set [2] (5% S(+)-ibuprofen, 15% IPA, pH 4.0 acetate buffer, 3 months); “O” in data set [2] (5% S(+)-ibuprofen, 20% IPA, pH 4.0 acetate buffer, 3 months). The Melt state result in data set [2] (isopropyl alcohol 10% or less by weight of total composition) is “did not completely melt”; in data set [2] (isopropyl alcohol 15% or higher) it was “completely transformed into an oil”. The “concentration of S(+)-ibuprofen in the oil” value in data set [3] is 68.4 % (w:w).
As for `CC(C)Cc1ccc(C(C)C(=O)O)cc1` (racemic) [racemic ibuprofen, a-methyl-4-(2-methylpropyl) benzene-acetic acid], the Melt state entry in data set [2] (racemic ibuprofen in place of S(+)-ibuprofen, samples as in Table 2, even at 25% IPA or higher) is “complete melt was never achieved”; in data set [4], “complete melt of the solids was never achieved”.
